Reference: patent US20260130906A1, “THERAPY COMPRISING ANTI-CD19 ANTIBODY AND SUMO-ACTIVATING ENZYME INHIBITOR” (TAKEDA PHARMACEUTICAL COMPANY LIMITED, priority 2021, published 2026)

Experiments:
SUMO-activating enzyme = SUMO-activating enzyme (Homo sapiens, UniProt Q9UBT2); test: Biochemical assays of SUMO-activating enzyme inhibition
Excerpt: (§1) SAE inhibitors, as disclosed herein, are described, for example, in US 2016/0009744 and U.S. Pat. No. 9,695,154 which is hereby incorporated by reference in its entirety. They may be prepared by methods known to one skilled in the art and/or according to the methods described in US 2016/0009744 and U.S. Pat. No. 9,695,154 . . . . Central to the mechanism of action of useful SAE inhibitors, such as Compound I-263a, in combinations and methods of the present disclosure is production of type 1 IFNs and induction of an innate immune response with activation of both natural killer (NK) cells and macrophages.

[1] = tested on: SUMO-activating enzyme and SUMOylation; test: Inhibition of SAE and SUMOylation in cultured tumor cell lines; assay type: cell-based; details: cultured mouse and human tumor cell lines
Excerpt: as §1

Sequence of SUMO-activating enzyme (Q9UBT2 whole entry): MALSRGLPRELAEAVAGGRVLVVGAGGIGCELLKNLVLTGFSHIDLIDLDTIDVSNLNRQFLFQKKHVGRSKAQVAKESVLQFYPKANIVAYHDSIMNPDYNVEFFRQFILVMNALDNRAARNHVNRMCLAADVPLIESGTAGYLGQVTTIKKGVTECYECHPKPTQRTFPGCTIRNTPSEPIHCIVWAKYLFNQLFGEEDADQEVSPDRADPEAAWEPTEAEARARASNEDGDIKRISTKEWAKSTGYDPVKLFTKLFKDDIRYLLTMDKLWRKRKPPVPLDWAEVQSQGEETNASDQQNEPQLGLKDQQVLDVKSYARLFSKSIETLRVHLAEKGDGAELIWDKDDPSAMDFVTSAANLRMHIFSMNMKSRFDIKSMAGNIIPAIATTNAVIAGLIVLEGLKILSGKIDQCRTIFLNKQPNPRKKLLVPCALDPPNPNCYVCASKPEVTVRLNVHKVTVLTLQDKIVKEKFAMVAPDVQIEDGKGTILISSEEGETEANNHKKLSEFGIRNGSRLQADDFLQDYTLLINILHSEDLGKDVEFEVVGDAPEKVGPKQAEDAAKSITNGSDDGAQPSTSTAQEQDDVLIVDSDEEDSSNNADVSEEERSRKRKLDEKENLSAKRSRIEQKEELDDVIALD
Sequence of SUMO-activating enzyme (Q9UBE0 whole entry partner): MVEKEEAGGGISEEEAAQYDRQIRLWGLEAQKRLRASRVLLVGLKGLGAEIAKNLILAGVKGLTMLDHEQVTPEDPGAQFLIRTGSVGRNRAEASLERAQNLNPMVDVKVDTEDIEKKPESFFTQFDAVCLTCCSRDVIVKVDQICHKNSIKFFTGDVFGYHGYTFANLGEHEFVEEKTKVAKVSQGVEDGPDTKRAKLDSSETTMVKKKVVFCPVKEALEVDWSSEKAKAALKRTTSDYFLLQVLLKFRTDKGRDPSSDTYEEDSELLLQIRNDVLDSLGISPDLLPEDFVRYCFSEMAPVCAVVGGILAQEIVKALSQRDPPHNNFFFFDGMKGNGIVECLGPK
Sequence of SUMO-activating enzyme (P63165 1-97 partner limits assumed): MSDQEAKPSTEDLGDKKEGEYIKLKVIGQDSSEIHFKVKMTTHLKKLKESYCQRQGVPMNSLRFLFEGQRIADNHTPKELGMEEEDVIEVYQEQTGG

Cc1sc(C(=O)c2cncnc2N[C@@H]2C[C@H](COS(N)(=O)=O)[C@@H](O)C2)cc1[C@@H]1NCCc2ccc(Cl)cc21 [Compound I-263a, [(1R,2S,4R)-4-{[5-({4-[(1R)-7-chloro-1,2,3,4-tetrahydroisoquinolin-1-yl]-5-methyl-2-thienyl}carbonyl)pyrimidin-4-yl]amino}-2-hydroxycyclopentyl]methyl sulfamate]
inhibition of SUMO-activating enzyme activity (SUMO-activating enzyme; mechanism-based, covalent adduct with SUMO): potently inhibits enzyme activity | selectivity for SUMO-activating enzyme (SUMO-activating enzyme; over ubiquitin-activating enzyme, Nedd8-activating enzyme, autophagy related 7 enzyme): Strong selectivity | inhibition of SUMO-activating enzyme and SUMOylation [1]: Selective and potent inhibition
